Laboratory results taken from BigSolDB 2.1.

NC(=O)Nc1ccccc1
solubility (mole fraction)
Conditions | 283.15 K | 288.15 K | 293.15 K | 298.15 K | 303.15 K | 308.15 K | 313.15 K | 318.15 K | 323.15 K
in 1,2-dichloroethane | 0.000433 | 0.000528 | 0.000706 | 0.000952 | 0.0012 | 0.00151 | 0.002 | 0.00257 | 0.00315
in 1,4-dioxane | – | 0.0128 | 0.0152 | 0.0183 | 0.022 | 0.0276 | 0.0348 | 0.0433 | 0.0525
in DMF | 0.205 | 0.212 | 0.22 | 0.229 | 0.24 | 0.253 | 0.266 | 0.282 | 0.3
in DMSO | – | – | 0.192 | 0.199 | 0.207 | 0.217 | 0.229 | 0.244 | 0.262
in NMP | 0.0457 | 0.0517 | 0.0596 | 0.0686 | 0.0787 | 0.0898 | 0.101 | 0.115 | 0.13
in acetonitrile | 0.00622 | 0.00731 | 0.00867 | 0.0106 | 0.0135 | 0.0177 | 0.0221 | 0.0264 | 0.0318
in ethanol | 0.0236 | 0.0272 | 0.0322 | 0.0383 | 0.0459 | 0.0525 | 0.0612 | 0.072 | 0.082
in ethyl acetate | 0.0147 | 0.0176 | 0.0209 | 0.0257 | 0.0309 | 0.0384 | 0.0461 | 0.0549 | 0.0643
in ethylene glycol | 0.0338 | 0.039 | 0.0448 | 0.0517 | 0.0595 | 0.0681 | 0.0774 | 0.0882 | 0.101
in isopropanol | 0.00903 | 0.0108 | 0.0132 | 0.0164 | 0.0198 | 0.0253 | 0.0321 | 0.0392 | 0.0472
in methanol | 0.0265 | 0.0305 | 0.036 | 0.0421 | 0.0495 | 0.0578 | 0.0672 | 0.0774 | 0.0888
in n-propanol | 0.02 | 0.0235 | 0.0281 | 0.0334 | 0.0394 | 0.0458 | 0.0539 | 0.0629 | 0.0723
in water | 0.000409 | 0.000513 | 0.000649 | 0.000828 | 0.00102 | 0.00124 | 0.0015 | 0.0018 | 0.00208
